In series [1] the target is T1, Aminopeptidase (Pseudomonas aeruginosa) (UniProt Q9HZQ8).
T1 sequence (whole entry): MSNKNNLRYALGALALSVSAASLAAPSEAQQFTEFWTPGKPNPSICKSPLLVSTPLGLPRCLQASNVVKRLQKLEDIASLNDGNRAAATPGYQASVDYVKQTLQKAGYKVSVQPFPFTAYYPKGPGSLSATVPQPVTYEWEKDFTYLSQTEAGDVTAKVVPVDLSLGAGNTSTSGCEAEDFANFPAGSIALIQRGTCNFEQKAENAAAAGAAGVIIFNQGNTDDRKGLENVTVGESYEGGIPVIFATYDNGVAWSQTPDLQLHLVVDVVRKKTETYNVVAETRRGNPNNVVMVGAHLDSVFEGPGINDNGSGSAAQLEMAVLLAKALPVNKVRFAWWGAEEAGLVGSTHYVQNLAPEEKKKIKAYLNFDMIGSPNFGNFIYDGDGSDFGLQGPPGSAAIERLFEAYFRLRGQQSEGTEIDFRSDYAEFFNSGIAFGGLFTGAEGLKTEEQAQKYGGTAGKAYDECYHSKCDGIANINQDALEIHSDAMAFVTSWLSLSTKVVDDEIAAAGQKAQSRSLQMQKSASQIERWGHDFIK
Kind of series: Inhibition of Pseudomonas aeruginosa aminopeptidase (PaAP) assessed as decrease in fluorescent intensity using fluorescent probe Hcy-NEO-Leu at 1 mM measured after 3 hrs.

Series [2] is described as follows: Cytotoxicity against human A-375 cells assessed as cell viability at 25 uM measured after 24 hrs by CCK-8 assay relative to control. The format is toxicity, cell-based. The note with it: read-out: Activity.
Series [3] can be described thus: Cytotoxicity against human HepG2 cells assessed as cell viability at 25 uM measured after 24 hrs by CCK-8 assay relative to control. The format is toxicity, cell-based. The note with it: read-out: Activity.
Series [4] can be described thus: Cytotoxicity against human HT-1080 cells assessed as cell viability at 25 uM measured after 24 hrs by CCK-8 assay relative to control. The format is toxicity, cell-based. The note with it: read-out: Activity.
The nature of series [5]: Cytotoxicity against mouse BV-2 cells assessed as cell viability at 25 uM measured after 24 hrs by CCK-8 assay relative to control. The format is toxicity, cell-based. The note with it: read-out: Activity.
The subject of series [6] is Pseudomonas aeruginosa. As to the kind of experiment: Antimicrobial activity against Pseudomonas aeruginosa ATCC27853 assessed as viability at 50 uM. The format is functional, organism-based.
For the next series, the target named is T2, Aminopeptidase (Pseudomonas aeruginosa, UniProt Q9HZQ8).
T2 sequence (Q9HZQ8 whole entry): T1 sequence (whole entry)
As to the kind of experiment: Inhibition of Pseudomonas aeruginosa aminopeptidase (PaAP) assessed as decrease in fluorescent intensity using fluorescent probe Hcy-NEO-Leu measured after 3 hrs.

For another series, the system named is Enterococcus faecium. Kind of series: Antimicrobial activity against Enterococcus faecium ATCC29212 assessed as viability at 0.39 to 100 uM. The format is functional, organism-based. As to conditions: dose 0.39-100 µM.
The next series has as its system Staphylococcus aureus. As to the kind of experiment: Antimicrobial activity against Staphylococcus aureus ATCC25923 assessed as viability at 0.39 to 100 uM. The format is functional, organism-based. As to conditions: dose 0.39-100 µM.
For the next series, the system named is Klebsiella pneumoniae. As to the kind of experiment: Antimicrobial activity against Klebsiella pneumonia ATCC 700603 assessed as viability at 0.39 to 100 uM. The format is functional, organism-based. As to conditions: dose 0.39-100 µM.
In a further series the test system is Acinetobacter baumannii. Kind of series: Antimicrobial activity against Acinetobacter baumannii ATCC19606 assessed as viability at 0.39 to 100 uM. The format is functional, organism-based. The note with it: dose 0.39-100 µM.
Series [7] has as its system Pseudomonas aeruginosa. Kind of series: Antimicrobial activity against Pseudomonas aeruginosa PAO1 assessed as viability at 0.39 to 100 uM. The note with it: dose 0.39-100 µM. The format is functional, organism-based.
The next series has as its system HepG2. Kind of series: Cytotoxicity against human HepG2 cells assessed as cell viability measured after 24 hrs by CCK-8 assay. The format is functional, cell-based.
Another series has as its system A-375. As to the kind of experiment: Cytotoxicity against human A-375 cells assessed as cell viability measured after 24 hrs by CCK-8 assay. The format is functional, cell-based.
The test system of the next series is BV-2. As to the kind of experiment: Cytotoxicity against mouse BV-2 cells assessed as cell viability measured after 24 hrs by CCK-8 assay. The format is functional, cell-based.
Another series relates to HK-2. Kind of series: Cytotoxicity against human HK2 cells assessed as cell viability measured after 24 hrs by CCK-8 assay. The format is functional, cell-based.
In series [8] the target is T1, Aminopeptidase (Pseudomonas aeruginosa). As to the kind of experiment: Inhibition of aminopeptidase (PaAP) in wild type Pseudomonas aeruginosa assessed as decrease in fluorescent intensity using fluorescent probe Hcy-NEO-Leu at 50 uM measured after 3 hrs.
The target is the same in series [9]. Kind of series: Inhibition of aminopeptidase (PaAP) in Pseudomonas aeruginosa delta(PaAP) assessed as decrease in fluorescent intensity using fluorescent probe Hcy-NEO-Leu at 50 uM measured after 3 hrs.
The test system of series [10] is Pseudomonas aeruginosa. As to the kind of experiment: Reduction in aminopeptidase (PaAP) expression level in Pseudomonas aeruginosa PAO1 at 50 to 200 uM by ELISA relative to control. As to conditions: dose 50-200 µM. The format is functional.
In series [11] the target is T1, Aminopeptidase (Pseudomonas aeruginosa). As to the kind of experiment: Inhibition of aminopeptidase (PaAP) in Pseudomonas aeruginosa PAO1 biofilm assessed as Hcy-NEO-Leu mediated fluorescence at 50 uM measured after 1 hr measured after 48 hrs by CLSM imaging based assay.
For series [12], the system named is Pseudomonas aeruginosa. As to the kind of experiment: Anti-biofilm activity against Pseudomonas aeruginosa PAO1 on nail (implant surface) using Hcy-NEO-Leu probe at 50 uM by fluorescence imaging analysis. The format is functional, organism-based.
In series [13] the test system is Pseudomonas aeruginosa. As to the kind of experiment: Anti-biofilm activity against Pseudomonas aeruginosa PAO1 on surgical suture (implant surface) using Hcy-NEO-Leu probe at 50 uM by fluorescence imaging analysis. The format is functional, organism-based.
Series [14] relates to Pseudomonas aeruginosa. As to the kind of experiment: Anti-biofilm activity against Pseudomonas aeruginosa PAO1 on catheter (implant surface) using Hcy-NEO-Leu probe at 50 uM by fluorescence imaging analysis. The format is functional, organism-based.
Series [15] concerns Pseudomonas aeruginosa. Kind of series: Anti-biofilm activity against Pseudomonas aeruginosa PAO1 at 50 uM by crystal violet staining based optical microscopy relative to control. The format is functional.
For series [16], the system named is Pseudomonas aeruginosa. Kind of series: Induction of antibiotic susceptibility of Pseudomonas aeruginosa PAO1 assessed as reduction in tobramycin resistance by measuring bio-film fluorescence image at 50 uM incubated for 2 days followed by treated with tobramycin for 24 hrs by Calcein-AM/PI dual staining based Confocal microscopy. The note with it: time 3.0 day. The format is functional, organism-based.

Series [17] deals with Pseudomonas aeruginosa. Kind of series: Anti-biofilm activity against Pseudomonas aeruginosa PAO1 biofilm exposed to RAW264.7 cells assessed as increase in bacterial uptake by macrophages at 50 uM measured after 12 hrs by LB plate assay. The format is functional, organism-based.
Series [18] has as its system Pseudomonas aeruginosa. As to the kind of experiment: Anti-biofilm activity against Pseudomonas aeruginosa PAO1 deltaPaAP biofilm exposed to RAW264.7 cells assessed as increase in bacterial uptake by macrophages at 50 uM measured after 12 hrs by LB plate assay. The format is functional, organism-based.
The test system of series [19] is Pseudomonas aeruginosa. As to the kind of experiment: In vivo anti-biofilm activity against pre colonized mature Pseudomonas aeruginosa PAO1 subcutaneously transplanted catheter in mouse model assessed as reduction in fluorescence signal using Hcy-NEO-Leu probe relative to control group. The format is functional.
The subject of series [20] is Pseudomonas aeruginosa. As to the kind of experiment: In vivo anti-biofilm activity against pre colonized mature Pseudomonas aeruginosa PAO1 subcutaneously transplanted catheter in mouse model assessed as reduction in bacterial CFU using Hcy-NEO-Leu probe. The format is functional, organism-based.
Series [21] has as its target T1, Aminopeptidase (Pseudomonas aeruginosa). Kind of series: Inhibition of aminopeptidase (PaAP) in Pseudomonas aeruginosa PAO1 biofilm assessed as Hcy-NEO-Leu mediated fluorescence at 1 mM measured after 1 hr measured after 48 hrs by CLSM imaging based assay.

The structures appear in SMILES notation. Calls of active or inactive are those of the source. The calls are words filed in the database; no cut-off is given here.

Turning to `O=C(CSc1ccc(F)cc1)O[C@@H]1C(=O)C=C2CCN3Cc4cc5c(cc4[C@H]1[C@@H]23)OCO5`, the inhibition result in series [1] was “Active”.
As to `CC(C)C[C@H](N)C(=O)Nc1ccc(COc2ccc3c(c2)OC2=C(/C=C/C4=[N+](CCCCCC(=O)NC[C@H]5O[C@@H](O[C@@H]6[C@@H](O)[C@H](N)C[C@H](N)[C@H]6O[C@H]6O[C@H](CN)[C@@H](O)[C@H](O)[C@H]6N)[C@H](O)[C@@H]5O[C@H]5O[C@@H](CN)[C@@H](O)[C@H](O)[C@H]5N)c5ccccc5C4(C)C)CCCC2=C3)cc1`, the viability at 24 h, 25 µM in series [2], in [3], in series [4] and in series [5] was over 80% each time. Also, the outcome with Pseudomonas aeruginosa [6] was inactive.
In the case of `O=C(O)CCNC(=O)c1ccc(/N=N/c2ccc(O)c(C(=O)O)c2)cc1` [BALSALAZIDE], the IC50 on Aminopeptidase turned out to be 39.2 µM.
`O=C1O[C@H]2[C@H]3c4cc5c(cc4CN4CCC(=C[C@H]2N1c1ccc(Cl)cc1)[C@H]34)OCO5`: in series [1], the inhibition entry is “Active”.
Turning to `O[C@H]1[C@H]2c3cc4c(cc3CN3CCC(=C[C@@H]1OC(=S)Nc1ccccc1)[C@H]23)OCO4`, the inhibition result in [1], in [8] and in [11] was “Active” each time. For the same molecule, the IC50 on Aminopeptidase was 36.8 µM. The result in the series on Enterococcus faecium, in the series on Staphylococcus aureus, in the series with Klebsiella pneumoniae, in the series on Acinetobacter baumannii, in the series with Pseudomonas aeruginosa [7] and with HepG2 was inactive. Further, the result in the series on A-375, with BV-2 and in the series on HK-2 was inactive. Also, the inhibition entry in [9] was “inactive”. The result in the series with Pseudomonas aeruginosa [10], in the series on Pseudomonas aeruginosa [12], with Pseudomonas aeruginosa [13], with Pseudomonas aeruginosa [14], with Pseudomonas aeruginosa [16] and with Pseudomonas aeruginosa [17] was Active. Moreover, the result in the series on Pseudomonas aeruginosa [18] and in the series with Pseudomonas aeruginosa [20] was Active. The Activity in the series on Pseudomonas aeruginosa [15] is reported as under 50%. Also, the “fold change (FC)” value in the series with Pseudomonas aeruginosa [19] is listed as 2.65.
For the molecule `O=C1C=C2CCN3Cc4cc5c(cc4[C@H]([C@@H]1O)[C@@H]23)OCO5`, in [1], the inhibition result is “Active”.
As for `O=C(O[C@H]1[C@H]2c3cc4c(cc3CN3CCC(=C[C@@H]1O)[C@H]23)OCO4)C1CCCCC1`, the inhibition result in [1] is “Active”.
On the same count and under the same terms, then `S=C1O[C@H]2[C@H]3c4cc5c(cc4CN4CCC(=C[C@H]2N1c1cccnc1)[C@H]34)OCO5`, with “Active”; and `O=C(COc1ccccc1)O[C@@H]1C(=O)C=C2CCN3Cc4cc5c(cc4[C@H]1[C@@H]23)OCO5`, with “Active”.
Turning to `CC(C)C[C@H](NC(=O)[C@@H](O)[C@H](N)Cc1ccccc1)C(=O)O` [UBENIMEX], the IC50 at Aminopeptidase was 521 µM. Further, the inhibition in [21] amounted to 100%.
Take `CC1(C)C(/C=C/C2=C3Oc4cc(O)ccc4C=C3CCC2)=[N+](CCCCCC(=O)NC[C@H]2O[C@@H](O[C@@H]3[C@@H](O)[C@H](N)C[C@H](N)[C@H]3O[C@H]3O[C@H](CN)[C@@H](O)[C@H](O)[C@H]3N)[C@H](O)[C@@H]2O[C@H]2O[C@@H](CN)[C@@H](O)[C@H](O)[C@H]2N)c2ccccc21`: the viability at 24 h, 25 µM in series [2], in [3], in series [4] and in series [5] was over 80% in each case. Also, the result with Pseudomonas aeruginosa [6] was inactive.
For `O=C(Nc1ccc(Cl)cc1)O[C@H]1[C@H]2c3cc4c(cc3CN3CCC(=C[C@@H]1O)[C@H]23)OCO4`, the inhibition result in series [1] is “Active”.
Same read-out and setting: then `O[C@H]1[C@H]2c3cc4c(cc3CN3CCC(=C[C@@H]1O)[C@H]23)OCO4`, with “Active”; and `O=C(NC1CCCCC1)O[C@H]1[C@H]2c3cc4c(cc3CN3CCC(=C[C@@H]1O)[C@H]23)OCO4`, with “Active”.
In the case of `CC(C)(C)[Si](C)(C)OC1CCC(N2C(=S)O[C@H]3[C@H]4c5cc6c(cc5CN5CCC(=C[C@H]32)[C@H]45)OCO6)CC1` (some centres not stated), the inhibition entry in [1] was “Active”.

The values are drawn from ChEMBL document CHEMBL6109130, “PaAP-Activatable NIR Probe for Diagnosing, Imaging, and Discovering Small-Molecule Therapeutics against Implant-Associated Biofilm Infections” (J Med Chem, 2025).
